{
  "source": "ChEMBL document CHEMBL4004849",
  "about": "“Tetrazolylmethyl quinolines: Design, docking studies, synthesis, anticancer and antifungal analyses” (2017)",
  "assay_type_in_all_cases": "functional",
  "key": {"[1]": {"test_system": "MDA-MB-231", "assay": "Growth inhibition of human MDA-MB-231/ATCC cells at 10^-5 M incubated for 48 hrs by sulforhodamine B assay relative to control"}, "[2]": {"test_system": "SN12C", "assay": "Growth inhibition of human SN12C cells at 10^-5 M incubated for 48 hrs by sulforhodamine B assay relative to control"}, "[3]": {"test_system": "OVCAR-3", "assay": "Growth inhibition of human OVCAR3 cells at 10^-5 M incubated for 48 hrs by sulforhodamine B assay relative to control"}, "[4]": {"test_system": "UACC-257", "assay": "Growth inhibition of human UACC257 cells at 10^-5 M incubated for 48 hrs by sulforhodamine B assay relative to control"}, "[5]": {"test_system": "OVCAR-5", "assay": "Growth inhibition of human OVCAR5 cells at 10^-5 M incubated for 48 hrs by sulforhodamine B assay relative to control"}, "[6]": {"test_system": "Hs-578T", "assay": "Growth inhibition of human Hs 578T cells at 10^-5 M incubated for 48 hrs by sulforhodamine B assay relative to control"}, "[7]": {"test_system": "K562", "assay": "Growth inhibition of human K562 cells at 10^-5 M incubated for 48 hrs by sulforhodamine B assay relative to control"}, "[8]": {"test_system": "MOLT-4", "assay": "Growth inhibition of human MOLT4 cells at 10^-5 M incubated for 48 hrs by sulforhodamine B assay relative to control"}, "[9]": {"test_system": "HT-29", "assay": "Growth inhibition of human HT-29 cells at 10^-5 M incubated for 48 hrs by sulforhodamine B assay relative to control"}, "[10]": {"test_system": "SW-620", "assay": "Growth inhibition of human SW620 cells at 10^-5 M incubated for 48 hrs by sulforhodamine B assay relative to control"}, "[11]": {"test_system": "UACC-62", "assay": "Growth inhibition of human UACC62 cells at 10^-5 M incubated for 48 hrs by sulforhodamine B assay relative to control"}, "[12]": {"test_system": "SNB-19", "assay": "Growth inhibition of human SNB19 cells at 10^-5 M incubated for 48 hrs by sulforhodamine B assay relative to control"}, "[13]": {"test_system": "TK-10", "assay": "Growth inhibition of human TK10 cells at 10^-5 M incubated for 48 hrs by sulforhodamine B assay relative to control"}, "[14]": {"test_system": "LOX IMVI", "assay": "Growth inhibition of human LOXIMVI cells at 10^-5 M incubated for 48 hrs by sulforhodamine B assay relative to control"}, "[15]": {"test_system": "SK-MEL-28", "assay": "Growth inhibition of human SK-MEL-28 cells at 10^-5 M incubated for 48 hrs by sulforhodamine B assay relative to control"}, "[16]": {"test_system": "HL-60(TB)", "assay": "Growth inhibition of human HL-60(TB) cells at 10^-5 M incubated for 48 hrs by sulforhodamine B assay relative to control"}, "[17]": {"test_system": "A549", "assay": "Growth inhibition of human A549/ATCC cells at 10^-5 M incubated for 48 hrs by sulforhodamine B assay relative to control"}, "[18]": {"test_system": "HCT-15", "assay": "Growth inhibition of human HCT15 cells at 10^-5 M incubated for 48 hrs by sulforhodamine B assay relative to control"}, "[19]": {"test_system": "T47D", "assay": "Growth inhibition of human T47D cells at 10^-5 M incubated for 48 hrs by sulforhodamine B assay relative to control"}, "[20]": {"test_system": "NCI-H226", "assay": "Growth inhibition of human NCI-H226 cells at 10^-5 M incubated for 48 hrs by sulforhodamine B assay relative to control"}, "[21]": {"test_system": "SF-268", "assay": "Growth inhibition of human SF268 cells at 10^-5 M incubated for 48 hrs by sulforhodamine B assay relative to control"}, "[22]": {"test_system": "SK-OV-3", "assay": "Growth inhibition of human SKOV3 cells at 10^-5 M incubated for 48 hrs by sulforhodamine B assay relative to control"}, "[23]": {"test_system": "HCC 2998", "assay": "Growth inhibition of human HCC2998 cells at 10^-5 M incubated for 48 hrs by sulforhodamine B assay relative to control"}, "[24]": {"test_system": "U-251", "assay": "Growth inhibition of human U251 cells at 10^-5 M incubated for 48 hrs by sulforhodamine B assay relative to control"}, "[25]": {"test_system": "786-0", "assay": "Growth inhibition of human 786-0 cells at 10^-5 M incubated for 48 hrs by sulforhodamine B assay relative to control"}, "[26]": {"test_system": "M14", "assay": "Growth inhibition of human M14 cells at 10^-5 M incubated for 48 hrs by sulforhodamine B assay relative to control"}, "[27]": {"test_system": "BT-549", "assay": "Growth inhibition of human BT549 cells at 10^-5 M incubated for 48 hrs by sulforhodamine B assay relative to control"}, "[28]": {"test_system": "RXF 393", "assay": "Growth inhibition of human RXF393 cells at 10^-5 M incubated for 48 hrs by sulforhodamine B assay relative to control"}, "[29]": {"test_system": "Aspergillus fumigatus", "assay": "Antifungal activity against Aspergillus fumigatus after 24 hrs by serial dilution method"}, "[30]": {"test_system": "SF-295", "assay": "Growth inhibition of human SF295 cells at 10^-5 M incubated for 48 hrs by sulforhodamine B assay relative to control"}, "[31]": {"test_system": "Aspergillus fumigatus", "assay": "Antifungal activity against Aspergillus fumigatus at 100 ug/ml by disc diffusion method", "conditions": "read-out: IZ"}, "[32]": {"test_system": "MCF7", "assay": "Growth inhibition of human MCF7 cells at 10^-5 M incubated for 48 hrs by sulforhodamine B assay relative to control"}, "[33]": {"test_system": "SF-539", "assay": "Growth inhibition of human SF539 cells at 10^-5 M incubated for 48 hrs by sulforhodamine B assay relative to control"}, "[34]": {"test_system": "Candida albicans", "assay": "Antifungal activity against Candida albicans after 24 hrs by serial dilution method"}, "[35]": {"test_system": "SR", "assay": "Growth inhibition of human SR cells at 10^-5 M incubated for 48 hrs by sulforhodamine B assay relative to control"}, "[36]": {"test_system": "NCI-H23", "assay": "Growth inhibition of human NCI-H23 cells at 10^-5 M incubated for 48 hrs by sulforhodamine B assay relative to control"}, "[37]": {"test_system": "EKVX", "assay": "Growth inhibition of human EKVX cells at 10^-5 M incubated for 48 hrs by sulforhodamine B assay relative to control"}, "[38]": {"test_system": "UO-31", "assay": "Growth inhibition of human UO31 cells at 10^-5 M incubated for 48 hrs by sulforhodamine B assay relative to control"}, "[39]": {"test_system": "OVCAR-4", "assay": "Growth inhibition of human OVCAR4 cells at 10^-5 M incubated for 48 hrs by sulforhodamine B assay relative to control"}, "[40]": {"test_system": "COLO 205", "assay": "Growth inhibition of human COLO205 cells at 10^-5 M incubated for 48 hrs by sulforhodamine B assay relative to control"}, "[41]": {"test_system": "ACHN", "assay": "Growth inhibition of human ACHN cells at 10^-5 M incubated for 48 hrs by sulforhodamine B assay relative to control"}, "[42]": {"test_system": "SNB-75", "assay": "Growth inhibition of human SNB75 cells at 10^-5 M incubated for 48 hrs by sulforhodamine B assay relative to control"}, "[43]": {"test_system": "SK-MEL-5", "assay": "Growth inhibition of human SK-MEL-5 cells at 10^-5 M incubated for 48 hrs by sulforhodamine B assay relative to control"}, "[44]": {"test_system": "OVCAR-8", "assay": "Growth inhibition of human OVCAR8 cells at 10^-5 M incubated for 48 hrs by sulforhodamine B assay relative to control"}, "[45]": {"test_system": "KM12", "assay": "Growth inhibition of human KM12 cells at 10^-5 M incubated for 48 hrs by sulforhodamine B assay relative to control"}},
  "note": "The source made the active and inactive calls. No cut-off for these calls is given here.",
  "data": [
    {"smiles": "Clc1nc2ccc(Br)cc2cc1Cn1nnnc1Cc1ccccc1", "values": [
      {"measurement": "growth inhibition (GI)", "setting": "[1]", "result": "Active"},
      {"measurement": "growth inhibition (GI)", "setting": "[2]", "result": "Active"},
      {"measurement": "growth inhibition (GI)", "setting": "[3]", "result": "Active"},
      {"measurement": "growth inhibition (GI)", "setting": "[4]", "result": "Active"},
      {"measurement": "growth inhibition (GI)", "setting": "[5]", "result": "Active"},
      {"measurement": "growth inhibition (GI)", "setting": "[6]", "result": "Active"},
      {"measurement": "growth inhibition (GI)", "setting": "[7]", "result": "Active"},
      {"measurement": "growth inhibition (GI)", "setting": "[8]", "result": "Active"},
      {"measurement": "growth inhibition (GI)", "setting": "[9]", "result": "Active"},
      {"measurement": "growth inhibition (GI)", "setting": "[10]", "result": "Active"},
      {"measurement": "growth inhibition (GI)", "setting": "[11]", "result": "Active"},
      {"measurement": "growth inhibition (GI)", "setting": "[12]", "result": "Active"},
      {"measurement": "growth inhibition (GI)", "setting": "[13]", "result": "Active"},
      {"measurement": "growth inhibition (GI)", "setting": "[14]", "result": "Active"},
      {"measurement": "growth inhibition (GI)", "setting": "[15]", "result": "Active"},
      {"measurement": "growth inhibition (GI)", "setting": "[16]", "result": "Active"},
      {"measurement": "growth inhibition (GI)", "setting": "[17]", "result": "Active"},
      {"measurement": "growth inhibition (GI)", "setting": "[18]", "result": "Active"},
      {"measurement": "growth inhibition (GI)", "setting": "[19]", "result": "Active"},
      {"measurement": "growth inhibition (GI)", "setting": "[20]", "result": "Active"},
      {"measurement": "growth inhibition (GI)", "setting": "[21]", "result": "Active"},
      {"measurement": "growth inhibition (GI)", "setting": "[22]", "result": "Active"},
      {"measurement": "growth inhibition (GI)", "setting": "[23]", "result": "Active"},
      {"measurement": "growth inhibition (GI)", "setting": "[24]", "result": "Active"},
      {"measurement": "growth inhibition (GI)", "setting": "[25]", "result": "Active"},
      {"measurement": "growth inhibition (GI)", "setting": "[26]", "result": "Active"},
      {"measurement": "growth inhibition (GI)", "setting": "[27]", "result": "Active"},
      {"measurement": "growth inhibition (GI)", "setting": "[28]", "result": "Active"},
      {"measurement": "MIC", "setting": "[29]", "result": 10, "unit": "µg/mL"},
      {"measurement": "growth inhibition (GI)", "setting": "[30]", "result": "Active"},
      {"measurement": "zone of inhibition at 100 µg/mL", "setting": "[31]", "result": 13, "unit": "mm"},
      {"measurement": "growth inhibition (GI)", "setting": "[32]", "result": "Active"},
      {"measurement": "growth inhibition (GI)", "setting": "[33]", "result": "Active"},
      {"measurement": "MIC", "setting": "[34]", "result": 10, "unit": "µg/mL"},
      {"measurement": "growth inhibition (GI)", "setting": "[35]", "result": "Active"},
      {"measurement": "growth inhibition (GI)", "setting": "[36]", "result": "Active"},
      {"measurement": "growth inhibition (GI)", "setting": "[37]", "result": "Active"},
      {"measurement": "growth inhibition (GI)", "setting": "[38]", "result": "Active"},
      {"measurement": "growth inhibition (GI)", "setting": "[39]", "result": "Active"},
      {"measurement": "growth inhibition (GI)", "setting": "[40]", "result": "Active"},
      {"measurement": "growth inhibition (GI)", "setting": "[41]", "result": "Active"},
      {"measurement": "growth inhibition (GI)", "setting": "[42]", "result": "Active"},
      {"measurement": "growth inhibition (GI)", "setting": "[43]", "result": "Active"},
      {"measurement": "growth inhibition (GI)", "setting": "[44]", "result": "Active"},
      {"measurement": "growth inhibition (GI)", "setting": "[45]", "result": "Active"}
    ]}
  ]
}
